Common to all, as to experiment: Protein kinase inhibition assay
Type in all cases: biochemical

One experiment has as its target TSSK2(h) (Homo sapiens, UniProt Q96PF2). Particulars: read-out: percent residual activity of TSSK2(h). How it is done:
(§1) Certain compounds were tested for activity in protein kinase inhibition assays. All substrates were dissolved and diluted to working stocks in de-ionized water, apart from histone H1 (10× working stock in 20 mM MOPS pH 7.0), PDKtide (10× working stock in 50 mM Tris pH 7.0) ATF2 (which is typically stored at a 20× working stock in 50 mM Tris pH 7.5, 150 mM NaCl, 0.1 mM EGTA, 0.03% Brij-35, 50% glycerol, 1 mM benzamidine, 0.2 mM PMSF and 0.1% R-mercaptoethanol), KKLNRTLSFAEPG (SEQ ID NO:203) and RRRLSFAEPG (SEQ ID NO:204) (50 mM HEPES pH 7.4) and GGEEEEYFELVKKKK (SEQ ID NO:205) (20 mM MOPS pH 7.0). All kinases were pre-diluted to a 10× working concentration prior to addition into the assay. The composition of the dilution buffer for each kinase is detailed below.
In a final reaction volume of 25 μl, TSSK2 (h) (5-10 mU) is incubated with 8 mM MOPS pH 7.0, 0.2 mM EDTA, 100 μM […] (SEQ ID NO:213), 10 mM MgAcetate and [y-33P-ATP] (specific activity approx. 500 cpm/pmol, concentration as required). The reaction is initiated by the addition of the MgATP mix. After incubation for 40 minutes at room temperature, the reaction is stopped by the addition of 5 μl of a 3% phosphoric acid solution. 10 μl of the reaction is then spotted onto a P30 filtermat and washed three times for 5 minutes in 75 mM phosphoric acid and once in methanol prior to drying and scintillation counting.

A further experiment has as its target PKCα(h) (Homo sapiens, UniProt P17252). Conditions: read-out: percent residual activity of PKCα(h). Here is the method:
as §1
In a final reaction volume of 25 μl, PKCα (h) (5-10 mU) is incubated with 20 mM HEPES pH 7.4, 0.03% Triton X-100, […], 0.1 mg/ml phosphatidylserine, 10 μg/ml diacylglycerol, 0.1 mg/ml histone H1, 10 mM MgAcetate and [gamma-33P-ATP] (specific activity approx. 500 cpm/pmol, concentration as required). The reaction is initiated by the addition of the MgATP mix. After incubation for 40 minutes at room temperature, the reaction is stopped by the addition of 5 μl of a 3% phosphoric acid solution. […]

Another experiment has as its target PRK2(h) (Homo sapiens, UniProt Q16513). Particulars: read-out: percent residual activity of PRK2(h). How it is done: as §1
In a final reaction volume of 25 μl, PRK2 (h) (5-10 mU) is incubated with 50 mM Tris pH 7.5, 0.1 mM EGTA, 0.1% R-mercaptoethanol, 30 μM AKRRRLSSLRA (SEQ ID NO:226), 10 mM MgAcetate and [gamma-33P-ATP] (specific activity approx. 500 cpm/pmol, concentration as required). The reaction is initiated by the addition of the MgATP mix. After incubation for 40 minutes at room temperature, the reaction is stopped by the addition of 5 μl of a 3% phosphoric acid solution. […]

The target of the next experiment is MAPKAP-K3(h) (Homo sapiens, UniProt Q16644). Conditions: read-out: percent residual activity of MAPKAP-K3(h). How it is done:
as §1
In a final reaction volume of 25 μl, MAPKAP-K3 (h) (5-10 mU) is incubated with 50 mM Na R-glycerophosphate pH 7.5, 0.1 mM EGTA, 30 μM KKLNRTLSVA (SEQ ID NO:212), 10 mM MgAcetate and [gamma-33P-ATP] (specific activity approx. 500 cpm/pmol, concentration as required). The reaction is initiated by the addition of the MgATP mix. After incubation for 40 minutes at room temperature, the reaction is stopped by the addition of 5 μl of a 3% phosphoric acid solution. […]

The next experiment concerns the target PKA(h) (Homo sapiens, UniProt P17612). Particulars: read-out: percent residual activity of PKA(h). Here is the method:
as §1
In a final reaction volume of 25 μl, PKA (h) (5-10 mU) is incubated with 8 mM MOPS pH 7.0, 0.2 mM EDTA, 30 μM LRRASLG (SEQ ID NO:209) (Kemptide), 10 mM MgAcetate and [y-33P-ATP] (specific activity approx. 500 cpm/pmol, concentration as required). The reaction is initiated by the addition of the MgATP mix. After incubation for 40 minutes at room temperature, the reaction is stopped by the addition of 5 μl of a 3% phosphoric acid solution. 10 μl of the reaction is then spotted onto a P30 filtermat and washed three times for 5 minutes in 50 mM phosphoric acid and once in methanol prior to drying and scintillation counting.

A further experiment concerns the target PKCζ(h) (Homo sapiens, UniProt Q05513). Conditions: read-out: percent residual activity of PKCζ(h). Here is the method: as §1
In a final reaction volume of 25 μl, PKCξ (h) (5-10 mU) is incubated with 8 mM MOPS pH 7.0, 0.2 mM EDTA, 50 μM ERMRPRKRQGSVRRRV (SEQ ID NO:224), 10 mM MgAcetate and [gamma-33P-ATP] (specific activity approx. 500 cpm/pmol, concentration as required). The reaction is initiated by the addition of the MgATP mix. After incubation for 40 minutes at room temperature, the reaction is stopped by the addition of 5 μl of a 3% phosphoric acid solution. 10 μl of the reaction is then spotted onto a P30 filtermat and washed three times for 5 minutes in 75 mM phosphoric acid and once in methanol prior to drying and scintillation counting.

Sequence of PKCζ(h) (Q05513 whole entry): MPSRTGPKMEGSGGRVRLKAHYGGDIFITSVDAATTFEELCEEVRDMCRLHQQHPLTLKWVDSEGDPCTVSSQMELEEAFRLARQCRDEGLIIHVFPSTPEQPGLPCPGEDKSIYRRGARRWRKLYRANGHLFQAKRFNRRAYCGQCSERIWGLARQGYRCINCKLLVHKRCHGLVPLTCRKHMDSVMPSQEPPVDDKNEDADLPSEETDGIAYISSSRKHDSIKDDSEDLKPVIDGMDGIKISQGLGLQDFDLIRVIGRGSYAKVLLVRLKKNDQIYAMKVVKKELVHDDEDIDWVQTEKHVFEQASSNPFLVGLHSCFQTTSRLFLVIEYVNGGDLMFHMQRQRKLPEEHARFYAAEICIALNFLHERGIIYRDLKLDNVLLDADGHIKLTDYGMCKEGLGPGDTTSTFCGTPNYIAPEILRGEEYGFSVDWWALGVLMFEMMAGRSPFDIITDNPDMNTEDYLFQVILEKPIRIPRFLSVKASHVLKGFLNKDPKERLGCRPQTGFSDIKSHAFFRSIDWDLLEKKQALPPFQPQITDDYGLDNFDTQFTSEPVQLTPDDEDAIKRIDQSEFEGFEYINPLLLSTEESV
Sequence of PRK2(h) (Q16513 whole entry): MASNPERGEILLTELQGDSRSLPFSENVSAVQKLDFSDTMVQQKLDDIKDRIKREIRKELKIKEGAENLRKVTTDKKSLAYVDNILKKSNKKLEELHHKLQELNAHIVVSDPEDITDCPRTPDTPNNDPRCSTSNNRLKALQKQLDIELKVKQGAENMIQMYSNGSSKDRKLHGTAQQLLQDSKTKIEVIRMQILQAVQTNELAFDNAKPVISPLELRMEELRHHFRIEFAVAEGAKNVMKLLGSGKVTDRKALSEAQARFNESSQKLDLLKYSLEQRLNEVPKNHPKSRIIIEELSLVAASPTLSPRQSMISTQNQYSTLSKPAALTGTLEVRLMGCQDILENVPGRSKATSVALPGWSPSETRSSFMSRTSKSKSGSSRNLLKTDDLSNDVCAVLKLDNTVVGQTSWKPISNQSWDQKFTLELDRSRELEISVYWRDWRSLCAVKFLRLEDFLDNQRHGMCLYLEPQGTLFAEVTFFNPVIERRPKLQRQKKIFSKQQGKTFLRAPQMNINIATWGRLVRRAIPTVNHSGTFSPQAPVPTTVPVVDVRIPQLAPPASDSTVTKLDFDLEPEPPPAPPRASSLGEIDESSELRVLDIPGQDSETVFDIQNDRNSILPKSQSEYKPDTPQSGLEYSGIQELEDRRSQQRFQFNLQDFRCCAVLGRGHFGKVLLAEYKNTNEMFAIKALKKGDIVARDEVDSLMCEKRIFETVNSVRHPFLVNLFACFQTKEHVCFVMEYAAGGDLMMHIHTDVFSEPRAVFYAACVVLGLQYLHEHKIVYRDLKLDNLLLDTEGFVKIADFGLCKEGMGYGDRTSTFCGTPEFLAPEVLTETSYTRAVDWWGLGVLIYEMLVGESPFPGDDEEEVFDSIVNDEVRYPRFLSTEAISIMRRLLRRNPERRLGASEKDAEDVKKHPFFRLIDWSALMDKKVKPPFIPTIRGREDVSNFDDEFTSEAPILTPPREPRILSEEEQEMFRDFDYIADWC
Sequence of MAPKAP-K3(h) (Q16644 whole entry): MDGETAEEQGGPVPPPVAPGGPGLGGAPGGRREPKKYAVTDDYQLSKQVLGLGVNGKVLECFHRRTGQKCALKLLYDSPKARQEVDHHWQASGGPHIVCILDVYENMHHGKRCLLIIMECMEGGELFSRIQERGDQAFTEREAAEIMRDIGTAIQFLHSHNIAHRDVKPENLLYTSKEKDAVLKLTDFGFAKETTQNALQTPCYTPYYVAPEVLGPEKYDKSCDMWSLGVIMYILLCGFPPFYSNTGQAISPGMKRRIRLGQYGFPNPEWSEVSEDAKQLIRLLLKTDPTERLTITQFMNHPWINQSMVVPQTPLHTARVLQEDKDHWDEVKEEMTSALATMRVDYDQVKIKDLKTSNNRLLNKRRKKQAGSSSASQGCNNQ
Sequence of TSSK2(h) (Q96PF2 whole entry): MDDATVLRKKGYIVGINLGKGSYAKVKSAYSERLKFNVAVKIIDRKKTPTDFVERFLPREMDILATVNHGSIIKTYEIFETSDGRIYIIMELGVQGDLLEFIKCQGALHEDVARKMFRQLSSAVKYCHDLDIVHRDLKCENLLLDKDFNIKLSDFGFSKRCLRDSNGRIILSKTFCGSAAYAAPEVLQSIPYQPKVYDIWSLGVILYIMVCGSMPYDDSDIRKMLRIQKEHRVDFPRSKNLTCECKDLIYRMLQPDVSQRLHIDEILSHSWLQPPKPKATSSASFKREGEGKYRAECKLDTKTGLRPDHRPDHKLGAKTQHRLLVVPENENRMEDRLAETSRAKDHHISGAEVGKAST

In the case of `CN1CCCC1CCNC(=O)c1cn2c3c(c(N4CCC(c5cnccn5)C4)c(F)cc3c1=O)Oc1cc3ccccc3cc1-2` (stereo not drawn) [Compound A-1], the remaining activity at 2.5 µM at TSSK2(h) turned out to be 105%; at PKCα(h), 90%; on PRK2(h), 36%; on MAPKAP-K3(h), 94%; at PKA(h), 105%; on PKCζ(h), 56%.
In the case of `CC(=O)N1CCN(c2ccc3c(=O)c(C(=O)NCCN4CCCC4)c4n(C)c5ccccc5n4c3n2)CC1` [Compound B-1], the remaining activity at 2.5 µM turned out to be 110% on TSSK2(h); 101% on PKCα(h); 110% at PRK2(h); 109% on MAPKAP-K3(h); 97% on PKA(h); 113% at PKCζ(h).

The values above are taken from patent US20070117770A1, “Human ribosomal DNA (rDNA) and ribosomal RNA (rRNA) nucleic acids and uses thereof” (Cylene Pharmaceuticals, Inc., priority 2005, published 2007).
